The values that follow are results of earlier work, collected in patent publication US20170266323A1, “NEAR-INFRARED-II FLUORESCENT AGENTS, METHODS OF MAKING NEAR-INFRARED-II FLUORESCENT AGENTS, AND METHODS OF USING WATER-SOLUBLE NIR-II FLUORESCENT AGENTS” (The Board of Trustees of the Leland Stanford Junior …, priority 2013, published 2017).

The conditions of data set [1]: in DCM, rhodamine B in ethanol as reference, reported by one study.

As to `ClC1=C(C=Cc2cc(-c3ccccc3)[s+]c(-c3ccccc3)c2)CCCC1=CC=C1C=C(c2ccccc2)SC(c2ccccc2)=C1.F[B-](F)(F)F` [IR-1061, 4-[2-[2-Chloro-3-[(2,6-diphenyl-4H-thiopyran-4-ylidene)ethylidene]-1-cyclohexen-1-yl]ethenyl]-2,6-diphenylthiopyrylium tetrafluoroborate], the solubility in water result is recorded as “water insoluble”. Besides, the fluorescence quantum efficiency in data set [1] is given as roughly 1.7±0.5%.
